In patent US12227500B2, “Substituted pyrrolo[2,3-b]pyridines for suppressing toxic endoplasmic reticulum stress” (THE TRUSTEES OF COLUMBIA UNIVERSITY IN THE CITY OF NEW YORK, priority 2018, dated 2025):

Tests used:
Test in all cases: Radiolabeled ATP kinase assay, panel of 371 kinases (Table S6)
Type in all cases: biochemical
[1] = target: T1, panel of 371 human kinases (Homo sapiens, UniProt O43293); conditions: ZIPK/DAPK3; 0.1 μM; 10 μM ATP; read-out: % Enzyme Activity (relative to DMSO controls)
T1 construct: purchased Reaction Biology Corp
Source text: (§1) ; FIG. 38C). […]. Further targeted analyses, such as genetic knock-down or knock-out, may be warranted to parse the role of these additional kinases in our model of neurodegeneration.

[2] = target: T2, panel of 371 human kinases (Homo sapiens, UniProt Q00537); conditions: CDK17/cyclin Y (PCTK2); 0.1 μM; 10 μM ATP; read-out: % Enzyme Activity (relative to DMSO controls)
T2 construct: purchased Reaction Biology Corp
Source text: as §1

[3] = target: T3, panel of 371 human kinases (Homo sapiens, UniProt Q15831); conditions: LKB1; 0.1 μM; 10 μM ATP; read-out: % Enzyme Activity (relative to DMSO controls)
T3 construct: purchased Reaction Biology Corp
Source text: as §1

[4] = target: T4, panel of 371 human kinases (Homo sapiens, UniProt P53350); conditions: PLK1; 0.1 μM; 10 μM ATP; read-out: % Enzyme Activity (relative to DMSO controls)
T4 construct: purchased Reaction Biology Corp
Source text: as §1

[5] = target: T5, panel of 371 human kinases (Homo sapiens, UniProt P36897); conditions: ALK5/TGFBR1; 0.1 μM; 10 μM ATP; read-out: % Enzyme Activity (relative to DMSO controls)
T5 construct: purchased Reaction Biology Corp
Source text: as §1

[6] = target: T6, panel of 371 human kinases (Homo sapiens, UniProt P45985); conditions: MKK4; 0.1 μM; 10 μM ATP; read-out: % Enzyme Activity (relative to DMSO controls)
T6 construct: purchased Reaction Biology Corp
Source text: as §1

[7] = target: T7, panel of 371 human kinases (Homo sapiens, UniProt P28482); conditions: ERK2/MAPK1; 0.1 μM; 10 μM ATP; read-out: % Enzyme Activity (relative to DMSO controls)
T7 construct: purchased Reaction Biology Corp
Source text: as §1

[8] = target: T8, panel of 371 human kinases (Homo sapiens, UniProt Q6P2M8); conditions: CAMK1b; 0.1 μM; 10 μM ATP; read-out: % Enzyme Activity (relative to DMSO controls)
T8 construct: purchased Reaction Biology Corp
Source text: as §1

[9] = target: T9, panel of 371 human kinases (Homo sapiens, UniProt Q13153); conditions: PAK1; 0.1 μM; 10 μM ATP; read-out: % Enzyme Activity (relative to DMSO controls)
T9 construct: purchased Reaction Biology Corp
Source text: as §1

[10] = target: T10, panel of 371 human kinases (Homo sapiens, UniProt Q99683); conditions: ASK1/MAP3K5; 0.1 μM; 10 μM ATP; read-out: % Enzyme Activity (relative to DMSO controls)
T10 construct: purchased Reaction Biology Corp
Source text: as §1

[11] = target: T11, panel of 371 human kinases (Homo sapiens, UniProt Q9UK32); conditions: RSK4; 0.1 μM; 10 μM ATP; read-out: % Enzyme Activity (relative to DMSO controls)
T11 construct: purchased Reaction Biology Corp
Source text: as §1

[12] = target: T12, panel of 371 human kinases (Homo sapiens, UniProt P22607); conditions: FGFR3; 0.1 μM; 10 μM ATP; read-out: % Enzyme Activity (relative to DMSO controls)
T12 construct: purchased Reaction Biology Corp
Source text: as §1

[13] = target: T13, panel of 371 human kinases (Homo sapiens, UniProt P30291); conditions: WEE1; 0.1 μM; 10 μM ATP; read-out: % Enzyme Activity (relative to DMSO controls)
T13 construct: purchased Reaction Biology Corp
Source text: as §1

[14] = target: T14, panel of 371 human kinases (Homo sapiens, UniProt Q06187); conditions: BTK; 0.1 μM; 10 μM ATP; read-out: % Enzyme Activity (relative to DMSO controls)
T14 construct: purchased Reaction Biology Corp
Source text: as §1

[15] = target: T15, panel of 371 human kinases (Homo sapiens, UniProt P54760); conditions: EPHB4; 0.1 μM; 10 μM ATP; read-out: % Enzyme Activity (relative to DMSO controls)
T15 construct: purchased Reaction Biology Corp
Source text: as §1

[16] = target: T16, panel of 371 human kinases (Homo sapiens, UniProt Q9BXA7); conditions: STK22D/TSSK1; 0.1 μM; 10 μM ATP; read-out: % Enzyme Activity (relative to DMSO controls)
T16 construct: purchased Reaction Biology Corp
Source text: as §1

[17] = target: T17, panel of 371 human kinases (Homo sapiens, UniProt Q08345); conditions: DDR1; 0.1 μM; 10 μM ATP; read-out: % Enzyme Activity (relative to DMSO controls)
T17 construct: purchased Reaction Biology Corp
Source text: as §1

[18] = target: T18, panel of 371 human kinases (Homo sapiens, UniProt Q9UPZ9); conditions: LCK2/ICK; 0.1 μM; 10 μM ATP; read-out: % Enzyme Activity (relative to DMSO controls)
T18 construct: purchased Reaction Biology Corp
Source text: as §1

[19] = target: T19, panel of 371 human kinases (Homo sapiens, UniProt Q13554); conditions: CAMK2b; 0.1 μM; 10 μM ATP; read-out: % Enzyme Activity (relative to DMSO controls)
T19 construct: purchased Reaction Biology Corp
Source text: as §1

[20] = target: T20, panel of 371 human kinases (Homo sapiens, UniProt Q86Y07); conditions: VRK2; 0.1 μM; 10 μM ATP; read-out: % Enzyme Activity (relative to DMSO controls)
T20 construct: purchased Reaction Biology Corp
Source text: as §1

[21] = target: T21, panel of 371 human kinases (Homo sapiens, UniProt P23443); conditions: p70S6K/RPS6KB1; 0.1 μM; 10 μM ATP; read-out: % Enzyme Activity (relative to DMSO controls)
T21 construct: purchased Reaction Biology Corp
Source text: as §1

[22] = target: T22, panel of 371 human kinases (Homo sapiens, UniProt Q13464); conditions: ROCK1; 0.1 μM; 10 μM ATP; read-out: % Enzyme Activity (relative to DMSO controls)
T22 construct: purchased Reaction Biology Corp
Source text: as §1

[23] = target: T23, panel of 371 human kinases (Homo sapiens, UniProt Q13873); conditions: BMPR2; 0.1 μM; 10 μM ATP; read-out: % Enzyme Activity (relative to DMSO controls)
T23 construct: purchased Reaction Biology Corp
Source text: as §1

[24] = target: T24, panel of 371 human kinases (Homo sapiens, UniProt O14578); conditions: STK21/CIT; 0.1 μM; 10 μM ATP; read-out: % Enzyme Activity (relative to DMSO controls)
T24 construct: purchased Reaction Biology Corp
Source text: as §1

T19 sequence (Q13554 whole entry): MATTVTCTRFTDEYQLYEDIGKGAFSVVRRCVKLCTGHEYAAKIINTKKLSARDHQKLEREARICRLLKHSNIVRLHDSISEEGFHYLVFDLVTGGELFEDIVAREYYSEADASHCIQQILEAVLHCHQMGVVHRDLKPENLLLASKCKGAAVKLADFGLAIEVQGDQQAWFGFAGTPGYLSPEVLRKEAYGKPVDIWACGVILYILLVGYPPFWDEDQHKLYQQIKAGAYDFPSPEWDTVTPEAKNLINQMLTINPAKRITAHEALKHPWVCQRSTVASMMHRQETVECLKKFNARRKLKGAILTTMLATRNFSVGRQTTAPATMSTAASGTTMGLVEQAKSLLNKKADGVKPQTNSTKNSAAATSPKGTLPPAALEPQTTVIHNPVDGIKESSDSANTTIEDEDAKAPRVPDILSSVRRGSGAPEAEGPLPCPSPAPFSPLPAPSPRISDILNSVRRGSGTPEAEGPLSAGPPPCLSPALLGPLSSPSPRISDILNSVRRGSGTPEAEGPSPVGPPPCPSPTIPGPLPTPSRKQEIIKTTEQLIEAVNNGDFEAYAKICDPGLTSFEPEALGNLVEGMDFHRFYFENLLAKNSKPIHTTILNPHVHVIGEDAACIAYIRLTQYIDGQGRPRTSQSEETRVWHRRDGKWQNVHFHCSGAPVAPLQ
T24 sequence (O14578 whole entry): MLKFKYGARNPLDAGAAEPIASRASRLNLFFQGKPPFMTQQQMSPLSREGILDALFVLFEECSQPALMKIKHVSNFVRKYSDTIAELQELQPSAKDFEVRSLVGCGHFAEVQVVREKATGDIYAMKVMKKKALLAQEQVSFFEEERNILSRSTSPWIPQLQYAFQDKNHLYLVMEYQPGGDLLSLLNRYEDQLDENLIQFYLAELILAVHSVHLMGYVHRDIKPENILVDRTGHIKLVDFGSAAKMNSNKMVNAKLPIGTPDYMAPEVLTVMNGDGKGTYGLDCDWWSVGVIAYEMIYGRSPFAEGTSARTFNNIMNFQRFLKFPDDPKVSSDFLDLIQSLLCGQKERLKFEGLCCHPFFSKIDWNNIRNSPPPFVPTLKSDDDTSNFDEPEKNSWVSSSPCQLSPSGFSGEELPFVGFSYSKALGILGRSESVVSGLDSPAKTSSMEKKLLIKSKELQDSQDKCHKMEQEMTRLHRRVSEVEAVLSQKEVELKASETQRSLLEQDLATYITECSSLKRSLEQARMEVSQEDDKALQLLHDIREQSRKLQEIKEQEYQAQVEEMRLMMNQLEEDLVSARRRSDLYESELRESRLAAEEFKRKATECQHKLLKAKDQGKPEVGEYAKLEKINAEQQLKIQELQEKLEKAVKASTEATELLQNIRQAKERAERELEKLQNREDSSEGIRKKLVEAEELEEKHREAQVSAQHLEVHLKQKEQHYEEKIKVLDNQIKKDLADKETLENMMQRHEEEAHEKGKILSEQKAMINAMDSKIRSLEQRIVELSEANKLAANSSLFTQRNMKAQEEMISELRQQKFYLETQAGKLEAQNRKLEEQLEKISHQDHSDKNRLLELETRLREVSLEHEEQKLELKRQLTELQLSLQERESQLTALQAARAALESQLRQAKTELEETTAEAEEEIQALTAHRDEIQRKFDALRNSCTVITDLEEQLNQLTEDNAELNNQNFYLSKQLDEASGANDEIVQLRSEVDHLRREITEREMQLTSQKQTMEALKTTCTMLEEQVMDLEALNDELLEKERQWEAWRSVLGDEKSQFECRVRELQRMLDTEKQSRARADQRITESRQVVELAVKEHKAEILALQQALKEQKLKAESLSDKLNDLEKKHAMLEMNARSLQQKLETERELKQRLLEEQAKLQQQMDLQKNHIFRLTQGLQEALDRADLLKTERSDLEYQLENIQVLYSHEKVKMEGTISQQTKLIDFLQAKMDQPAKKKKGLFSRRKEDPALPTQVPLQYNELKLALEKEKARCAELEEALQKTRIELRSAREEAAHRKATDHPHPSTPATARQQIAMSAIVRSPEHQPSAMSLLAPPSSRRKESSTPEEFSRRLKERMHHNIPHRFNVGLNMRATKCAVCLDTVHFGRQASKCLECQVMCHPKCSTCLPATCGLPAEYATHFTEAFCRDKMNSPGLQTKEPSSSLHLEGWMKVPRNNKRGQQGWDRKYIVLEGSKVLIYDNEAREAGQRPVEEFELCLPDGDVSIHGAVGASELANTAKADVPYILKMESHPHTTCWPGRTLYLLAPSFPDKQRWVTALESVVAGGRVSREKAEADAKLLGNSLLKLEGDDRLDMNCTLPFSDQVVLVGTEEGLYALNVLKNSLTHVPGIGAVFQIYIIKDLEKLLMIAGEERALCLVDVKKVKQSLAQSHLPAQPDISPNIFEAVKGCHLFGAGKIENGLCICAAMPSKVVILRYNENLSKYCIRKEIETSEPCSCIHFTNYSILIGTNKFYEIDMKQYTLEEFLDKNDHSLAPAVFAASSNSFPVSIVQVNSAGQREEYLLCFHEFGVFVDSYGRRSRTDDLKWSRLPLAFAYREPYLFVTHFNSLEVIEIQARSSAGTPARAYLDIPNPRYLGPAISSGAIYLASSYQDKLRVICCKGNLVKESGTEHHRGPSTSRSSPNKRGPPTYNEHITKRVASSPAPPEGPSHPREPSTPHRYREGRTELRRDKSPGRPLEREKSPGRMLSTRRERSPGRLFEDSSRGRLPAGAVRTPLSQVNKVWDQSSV
T6 sequence (P45985 whole entry): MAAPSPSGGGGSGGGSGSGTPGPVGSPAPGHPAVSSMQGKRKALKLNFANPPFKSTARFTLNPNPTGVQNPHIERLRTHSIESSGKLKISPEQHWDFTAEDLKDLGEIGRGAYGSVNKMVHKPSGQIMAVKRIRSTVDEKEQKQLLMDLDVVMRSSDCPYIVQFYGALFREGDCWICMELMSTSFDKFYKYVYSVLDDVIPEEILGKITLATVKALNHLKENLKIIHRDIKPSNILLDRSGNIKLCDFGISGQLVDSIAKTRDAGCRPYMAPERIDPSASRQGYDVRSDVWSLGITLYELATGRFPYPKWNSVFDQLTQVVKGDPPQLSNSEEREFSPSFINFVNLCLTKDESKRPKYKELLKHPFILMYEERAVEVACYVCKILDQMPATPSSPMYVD
T17 sequence (Q08345 19-913): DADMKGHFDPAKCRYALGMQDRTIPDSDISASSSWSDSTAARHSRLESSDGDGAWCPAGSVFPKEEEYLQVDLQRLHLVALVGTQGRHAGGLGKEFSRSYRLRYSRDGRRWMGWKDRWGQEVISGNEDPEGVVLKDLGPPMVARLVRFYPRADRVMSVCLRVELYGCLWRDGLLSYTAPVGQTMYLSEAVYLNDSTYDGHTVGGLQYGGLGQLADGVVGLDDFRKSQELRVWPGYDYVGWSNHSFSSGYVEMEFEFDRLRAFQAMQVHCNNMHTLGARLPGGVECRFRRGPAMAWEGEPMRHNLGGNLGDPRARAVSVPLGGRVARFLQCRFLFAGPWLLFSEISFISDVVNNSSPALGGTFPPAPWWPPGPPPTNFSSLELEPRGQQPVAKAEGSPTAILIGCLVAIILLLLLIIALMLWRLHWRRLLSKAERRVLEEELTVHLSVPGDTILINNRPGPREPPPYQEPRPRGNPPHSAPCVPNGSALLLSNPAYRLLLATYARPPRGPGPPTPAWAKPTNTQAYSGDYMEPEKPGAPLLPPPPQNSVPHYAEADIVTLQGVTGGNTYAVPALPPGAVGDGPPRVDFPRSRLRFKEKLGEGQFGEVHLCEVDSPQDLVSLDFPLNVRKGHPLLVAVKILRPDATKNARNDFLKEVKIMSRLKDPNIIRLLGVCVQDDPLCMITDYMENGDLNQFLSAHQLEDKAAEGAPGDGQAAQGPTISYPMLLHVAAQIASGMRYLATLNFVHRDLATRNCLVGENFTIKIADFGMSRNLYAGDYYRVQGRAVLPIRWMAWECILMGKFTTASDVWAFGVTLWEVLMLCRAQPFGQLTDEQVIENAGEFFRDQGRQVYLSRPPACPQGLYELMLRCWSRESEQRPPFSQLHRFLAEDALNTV
T13 sequence (P30291 whole entry): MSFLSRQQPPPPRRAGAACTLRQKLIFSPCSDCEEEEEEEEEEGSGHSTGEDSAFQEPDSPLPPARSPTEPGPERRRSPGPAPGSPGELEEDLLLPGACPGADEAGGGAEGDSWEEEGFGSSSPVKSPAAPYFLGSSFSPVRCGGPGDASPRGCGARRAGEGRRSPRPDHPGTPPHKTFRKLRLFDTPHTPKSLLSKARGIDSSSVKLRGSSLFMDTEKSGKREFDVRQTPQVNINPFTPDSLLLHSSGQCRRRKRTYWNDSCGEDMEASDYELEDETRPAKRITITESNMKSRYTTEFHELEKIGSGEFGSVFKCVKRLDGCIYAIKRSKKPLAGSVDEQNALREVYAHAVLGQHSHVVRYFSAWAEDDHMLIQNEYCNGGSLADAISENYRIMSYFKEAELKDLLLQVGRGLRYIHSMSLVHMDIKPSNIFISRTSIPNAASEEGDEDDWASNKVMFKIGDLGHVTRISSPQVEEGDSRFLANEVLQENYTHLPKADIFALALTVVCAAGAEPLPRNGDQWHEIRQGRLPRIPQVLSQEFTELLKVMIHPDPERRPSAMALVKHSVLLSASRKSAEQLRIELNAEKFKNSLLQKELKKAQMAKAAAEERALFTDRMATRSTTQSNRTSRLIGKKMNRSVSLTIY
T3 sequence (Q15831 whole entry): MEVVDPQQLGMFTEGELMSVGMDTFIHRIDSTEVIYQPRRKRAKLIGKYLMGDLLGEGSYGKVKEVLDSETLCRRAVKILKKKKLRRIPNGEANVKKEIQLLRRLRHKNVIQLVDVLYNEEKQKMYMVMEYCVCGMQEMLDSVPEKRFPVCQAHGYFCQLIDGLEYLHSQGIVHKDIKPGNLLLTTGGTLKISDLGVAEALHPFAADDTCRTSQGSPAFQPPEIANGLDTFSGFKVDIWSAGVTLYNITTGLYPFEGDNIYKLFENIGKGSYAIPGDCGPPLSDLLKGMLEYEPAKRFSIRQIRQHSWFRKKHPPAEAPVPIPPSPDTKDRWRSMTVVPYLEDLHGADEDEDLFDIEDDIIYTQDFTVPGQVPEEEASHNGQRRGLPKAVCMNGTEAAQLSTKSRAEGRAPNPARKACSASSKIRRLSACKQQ

How did the remaining activity at 0.1 µM [1] turn out when CN1CCN(Cc2ccc(-c3cnc4[nH]cc(-c5ccc6[nH]ccc6c5)c4c3)cc2)CC1 [Compound 1, 3-(1H-Indol-5-yl)-5-(4-((4-methylpiperazin-1-yl)methyl)phenyl)-1H-pyrrolo[2,3-b]pyridine, reference compound] was run?
The remaining activity at 0.1 µM was 108%.

And the remaining activity at 0.1 µM [2]?
The remaining activity at 0.1 µM was 88%.

And the remaining activity at 0.1 µM [3]?
Its remaining activity at 0.1 µM is 101%.

And the remaining activity at 0.1 µM [4]?
Its remaining activity at 0.1 µM is 98.6%.

And the remaining activity at 0.1 µM [5]?
Its remaining activity at 0.1 µM is 97.6%.

What about the remaining activity at 0.1 µM [6] of the same molecule?
The remaining activity at 0.1 µM was 105%.

What about the remaining activity at 0.1 µM [7] of the same molecule?
Its remaining activity at 0.1 µM is 104%.

What about the remaining activity at 0.1 µM [8] of the same molecule?
Its remaining activity at 0.1 µM is 105%.

And the remaining activity at 0.1 µM [9]?
Its remaining activity at 0.1 µM is 85.2%.

What about the remaining activity at 0.1 µM [10] of the same molecule?
The remaining activity at 0.1 µM was 103%.

And the remaining activity at 0.1 µM [11]?
Its remaining activity at 0.1 µM is 83.5%.

What about the remaining activity at 0.1 µM [12] of the same molecule?
Its remaining activity at 0.1 µM is 76.7%.

And the remaining activity at 0.1 µM [13]?
Its remaining activity at 0.1 µM is 114%.

And the remaining activity at 0.1 µM [14]?
Its remaining activity at 0.1 µM is 103%.

And the remaining activity at 0.1 µM [15]?
The remaining activity at 0.1 µM was 91.6%.

And the remaining activity at 0.1 µM [16]?
The remaining activity at 0.1 µM was 87.2%.

What about the remaining activity at 0.1 µM [17] of the same molecule?
Its remaining activity at 0.1 µM is 89.9%.

What about the remaining activity at 0.1 µM [18] of the same molecule?
The remaining activity at 0.1 µM was 111%.

And the remaining activity at 0.1 µM [19]?
The remaining activity at 0.1 µM was 95.5%.

What about the remaining activity at 0.1 µM [20] of the same molecule?
The remaining activity at 0.1 µM was 99.8%.

What about the remaining activity at 0.1 µM [21] of the same molecule?
The remaining activity at 0.1 µM was 93.2%.

And the remaining activity at 0.1 µM [22]?
The remaining activity at 0.1 µM was 94.7%.

And the remaining activity at 0.1 µM [23]?
The remaining activity at 0.1 µM was 90.5%.

And the remaining activity at 0.1 µM [24]?
The remaining activity at 0.1 µM was 103%.

For OCCN1CCN(Cc2ccc(-c3cnc4[nH]cc(-c5cccc(Cl)c5)c4c3)cc2)CC1 [Compound 12k, 2-(4-(4-(3-(3-Chlorophenyl)-1H-pyrrolo[2,3-b]pyridin-5-yl)benzyl)piperazin-1-yl)ethan-1-ol], which remaining activity at 0.1 µM [1] is on record?
The remaining activity at 0.1 µM was 99.8%.

What about the remaining activity at 0.1 µM [2] of the same molecule?
Its remaining activity at 0.1 µM is 74%.

What about the remaining activity at 0.1 µM [3] of the same molecule?
The remaining activity at 0.1 µM was 78.7%.

And the remaining activity at 0.1 µM [4]?
The remaining activity at 0.1 µM was 100%.

And the remaining activity at 0.1 µM [5]?
Its remaining activity at 0.1 µM is 98.5%.

What about the remaining activity at 0.1 µM [6] of the same molecule?
Its remaining activity at 0.1 µM is 110%.

And the remaining activity at 0.1 µM [7]?
Its remaining activity at 0.1 µM is 101%.

And the remaining activity at 0.1 µM [8]?
Its remaining activity at 0.1 µM is 103%.

What about the remaining activity at 0.1 µM [9] of the same molecule?
Its remaining activity at 0.1 µM is 78.2%.

And the remaining activity at 0.1 µM [10]?
The remaining activity at 0.1 µM was 95.7%.

What about the remaining activity at 0.1 µM [11] of the same molecule?
The remaining activity at 0.1 µM was 41.2%.

What about the remaining activity at 0.1 µM [12] of the same molecule?
The remaining activity at 0.1 µM was 80.9%.

What about the remaining activity at 0.1 µM [13] of the same molecule?
The remaining activity at 0.1 µM was 86.6%.

And the remaining activity at 0.1 µM [14]?
Its remaining activity at 0.1 µM is 99.7%.

What about the remaining activity at 0.1 µM [15] of the same molecule?
The remaining activity at 0.1 µM was 97.5%.

What about the remaining activity at 0.1 µM [16] of the same molecule?
Its remaining activity at 0.1 µM is 75.2%.

And the remaining activity at 0.1 µM [17]?
The remaining activity at 0.1 µM was 86.6%.

What about the remaining activity at 0.1 µM [18] of the same molecule?
Its remaining activity at 0.1 µM is 109%.

And the remaining activity at 0.1 µM [19]?
Its remaining activity at 0.1 µM is 92.2%.

What about the remaining activity at 0.1 µM [20] of the same molecule?
The remaining activity at 0.1 µM was 98.6%.

What about the remaining activity at 0.1 µM [21] of the same molecule?
The remaining activity at 0.1 µM was 99.3%.

And the remaining activity at 0.1 µM [22]?
The remaining activity at 0.1 µM was 79.2%.

What about the remaining activity at 0.1 µM [23] of the same molecule?
The remaining activity at 0.1 µM was 90.3%.

And the remaining activity at 0.1 µM [24]?
The remaining activity at 0.1 µM was 104%.
